The test system of one assay is JAK3/JAK1. Nature of the assay: JAK enzyme activity inhibition, JAK3 versus JAK1 selectivity. The class given is biochemical. The following applies: ratio of JAK3 IC50 to JAK1 IC50. On the procedure: (§1) The tested compounds were dissolved in DMSO to provide a 10 mM mother solution. The compound was diluted to 1 mM in DMSO before use, and was gradient diluted by 3 folds to altogether 11 concentrations. After the buffer was prepared, JAK1, JAK2, JAK3 and the substrate were mixed with pre-diluted compounds in different concentrations, and allowed to stand at room temperature for 30 minutes, while each concentration was duplicated for twice. ATP was added and reacted at room temperature for 90 minutes, and antibody was added for detection after the reaction was completed.

Assay [1] deals with mouse spleen cells. The assay can be described thus: Mitogen ConA-induced mouse spleen cell proliferation (CCK8). It is filed as cell-based. The following applies: for EC50: mouse spleen cells, ConA as stimulus, read-out: Inhibition activity (EC50), ConA induction; for concentration at which inhibition of lymphocyte proliferation began: ConA as the stimuli; for inhibition to the non-specific immunosuppression induced by mitogen: in words, compared with specific immunity. On the procedure: […] 5*10^5/well, with or without 50 uL of ConA at a concentration of 2.5 ug/uL as well as 50 uL inhibitors at a different concentration, while the negative control wells were supplemented with 50 uL of complete 1640 medium. After 48 hours of culture, the cell culture supernatant was collected for 100 uL/well for subsequent ELISA, and 10 uL/well of CCK8 reagent was added to detect the cell proliferation. The proliferation of immune cells was microscopic observed in each group.
[…] mouse spleen cells were adjusted to a cell concentration of 5*10^6/mL in complete 1640 medium, […], i.e., 5*10^5/well, […], as well as 50 uL of different concentrations of inhibitor (compound 1-6) while negative control well was supplemented with 50 uL of complete 1640 medium. […] The proliferation of immune cells was microscopic observed in each group, and the EC50 value was calculated.

Assay [2] has as its system mouse spleen cells. The assay can be described thus: CD3/CD28 antibody-induced mouse spleen cell proliferation (CCK8). The class given is cell-based. The following applies: for EC50: mouse spleen cells, CD3/CD28 antibodies as stimulus, read-out: Inhibition activity (EC50), CD3/CD28; for concentration at which inhibition of lymphocyte proliferation began: Anti-CD3/CD28 as the stimuli.

A further assay concerns JAK2/JAK1. The assay can be described thus: JAK enzyme activity inhibition, JAK2 versus JAK1 selectivity. It is filed as biochemical. Conditions: ratio of JAK2 IC50 to JAK1 IC50. Here is the method:
as §1

Consider “2-cyano-3-hydroxy-2-butene-{4-[methyl-(7H-pyrrolo[2,3-d]pyrimidin-4-yl)-amino]-cyclohexyl]-amide [Compound 5]”, for which, in the assay with JAK3/JAK1, the “Selectivity fold JAK3/JAK1 IC50 ratio” value is over 10 fold. For the same compound, the values for the EC50 in the assay with mouse spleen cells [1] and in the assay with mouse spleen cells [2] were over 200 µM and over 100 µM, respectively. Moreover, the “Selectivity fold JAK2/JAK1 IC50 ratio” value with JAK2/JAK1 was over 10 fold.

For the compound “2-cyano-3-hydroxy-2-butene-{4-[methyl-(7H-pyrrolo[2,3-d]pyrimidin-4-yl)-amino]-phenyl]-amide [Compound 4]”, the “Selectivity fold JAK3/JAK1 IC50 ratio” value in the assay on JAK3/JAK1 came to 5 fold. For the same compound, in the assay with mouse spleen cells [1], the “concentration at which inhibition of lymphocyte proliferation began” value (“concentration at which inhibition” for short) was 100 µM and the EC50 was 61.2 µM. Further, in the assay on mouse spleen cells [2], the “concentration at which inhibition” value stood at 50 µM and the EC50 was found to be 30.9 µM. Besides, the “Selectivity fold JAK2/JAK1 IC50 ratio” value with JAK2/JAK1 turned out to be 7 fold.

Regarding “5-methyl-isoxazole-{4-methyl-(7H-pyrrolo[2,3-d]pyrimidin-4-yl)-amino]-cyclohex yl}-amine [Compound 3]”, the “Selectivity fold JAK3/JAK1 IC50 ratio” value with JAK3/JAK1 was over 10 fold. Also, in the assay on mouse spleen cells [1], the “concentration at which inhibition” value stood at 10 µM, the “inhibition to the non-specific immunosuppression induced by mitogen” value is “weak” and the EC50 was 90.7 µM. In the assay on mouse spleen cells [2], the “concentration at which inhibition” value was 10 µM and the EC50 is 65.7 µM. The “Selectivity fold JAK2/JAK1 IC50 ratio” value with JAK2/JAK1 is reported as over 10 fold.

As to `CN(c1ccc(N)cc1)c1ncnc2[nH]ccc12` [Compound 1, N-Methyl-N-(7H-pyrrolo[2,3-d]pyrimidin-4-yl)phenyl-1,4-diamine], the “Selectivity fold JAK3/JAK1 IC50 ratio” value in the assay with JAK3/JAK1 came out at 2 fold. Besides, in the assay with mouse spleen cells [1], the “concentration at which inhibition” value stood at 10 µM, the “inhibition to the non-specific immunosuppression induced by mitogen” value is “weak” and the EC50 is 53.9 µM. In addition, in the assay on mouse spleen cells [2], the “concentration at which inhibition” value came to 10 µM and the EC50 was 22.7 µM. For the same compound, in the assay on JAK2/JAK1, the “Selectivity fold JAK2/JAK1 IC50 ratio” value stood at 7 fold.

For the compound `Cc1oncc1C(=O)Nc1ccc(N(C)c2ncnc3[nH]ccc23)cc1` [Compound 2], the “Selectivity fold JAK3/JAK1 IC50 ratio” value in the assay on JAK3/JAK1 is over 10 fold. In the assay with mouse spleen cells [1], the “concentration at which inhibition” value stood at 10 µM and the EC50 came out at 40.3 µM. Also, in the assay on mouse spleen cells [2], the “concentration at which inhibition” value amounted to 50 µM and the EC50 was found to be 15.1 µM. Also, in the assay with JAK2/JAK1, the “Selectivity fold JAK2/JAK1 IC50 ratio” value is over 10 fold.

On to `C/C(O)=C(\C#N)C(=O)Nc1ccc(C(F)(F)F)cc1` [Compound A771726, A771726, reference compound], for which the EC50 in the assay with mouse spleen cells [1] and in the assay with mouse spleen cells [2] was over 200 µM each time.

Consider `C[C@@H]1CCN(C(=O)CC#N)C[C@@H]1N(C)c1ncnc2[nH]ccc12` [Tofatinib, reference compound], for which, in the assay with JAK3/JAK1, the “Selectivity fold JAK3/JAK1 IC50 ratio” value is listed as under 1 fold. Also, in the assay with JAK2/JAK1, the “Selectivity fold JAK2/JAK1 IC50 ratio” value is recorded as 2 fold.

For the origin of these results see patent US11591333B2, “Substituted pyrrolo[2,3-d]pyrimidines as janus kinase inhibitors” (CINKATE PHARM TECH (SHANGHAI) CO.,LTD., priority 2016, dated 2023).
